Test results as given in US7214669B2, “Tetracycline derivatives and methods of use thereof” (Tetragenex Pharmaceuticals, Inc., priority 2001, dated 2007).
Values joined by “and” are separate entries in the source; they are usually repeats but may differ in a detail not shown here. Identical values can stand only once.

Key:
Human recombinant MMP14 = Human recombinant MMP14 (Homo sapiens, UniProt P50281); experiment: MMP14 (MTI-MMP) inhibition, 14C collagen release; assay type: biochemical; details: 35° C., 15 hours; read-out: MMP-14 inhibitory activity, IC50
Procedure: Protocol for Measuring MMP14 (MTI-MMP) Inhibition by Tetracycline Derivatives
MMP14 activity was determined by the release of soluble ^14C labelled collagen fragments from ^14C acetylated rat skin type I collagen (Methods in Enzymology 80 711, 1981).
• 100 μg ^14C labelled collagen (5–6000 dpm) • 50 mM Tris HCL pH 7.9 • 15 mM CaCl2 0.02% azide • Human recombinant MMP14 50–100 nM • ±Tetracycline (up to 1 mM) in a total volume of 300 μl.
Incubations were at 35° C. for 15 hours. Uncleaved collagen fibrils (which form within the first 10 minutes) were removed by centrifugation at 10,000 g 4° C. 10 minutes 200 μl supernatant were counted in Packard Opti Phase Supermix scintillation fluid using a scintillation counter. Only data derived from within the linear part of the assay (10–70% lysis of the collagen) were utilized. Based on percentage inhibition of the activity of MMP1 alone by a range of concentrations of each sample, the IC50 value for each tetracycline was calculated.

MMP2 (Gelatinase A) = target: T1, MMP2 (Gelatinase A) (Homo sapiens, UniProt P08253); experiment: MMP2 (Gelatinase A) inhibition, 14C gelatin release; assay type: biochemical; details: 37° C., 16 hours; read-out: MMP-2 inhibitory activity, IC50
T1 sequence (P08253 110-660): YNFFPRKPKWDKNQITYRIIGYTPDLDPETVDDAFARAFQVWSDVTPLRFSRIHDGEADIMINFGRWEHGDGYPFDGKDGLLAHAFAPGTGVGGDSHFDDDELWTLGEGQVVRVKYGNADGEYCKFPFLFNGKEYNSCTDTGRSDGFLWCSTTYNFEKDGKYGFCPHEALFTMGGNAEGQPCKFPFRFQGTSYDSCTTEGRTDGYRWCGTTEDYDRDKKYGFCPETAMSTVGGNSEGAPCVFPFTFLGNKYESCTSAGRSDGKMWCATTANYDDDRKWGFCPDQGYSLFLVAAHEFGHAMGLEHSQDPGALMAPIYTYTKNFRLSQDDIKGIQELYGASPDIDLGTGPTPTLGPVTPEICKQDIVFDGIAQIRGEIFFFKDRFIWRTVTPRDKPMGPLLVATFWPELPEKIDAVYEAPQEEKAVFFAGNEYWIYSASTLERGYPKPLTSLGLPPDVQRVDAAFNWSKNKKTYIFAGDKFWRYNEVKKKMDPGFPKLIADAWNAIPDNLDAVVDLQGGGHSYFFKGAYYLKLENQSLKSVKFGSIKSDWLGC
Procedure: Protocol for Measuring MMP2 (Gelatinase A) Inhibition
MMP2 activity was determined by the release of trichloracetic acid, TCA, soluble fragments from ^14C acetylated rat skin type I gelatin (Methods in Enzymology 248, 470, 1995. Biochem. J. 195, 1981)
• 100 μg ^14C labelled gelatin (type I collagen denatured 60° C. 20 min) • 50 mM Tris HCl pH 7.9 • 15 mM CaCl2, 0.02% azide • Human recombinant MMP1, 0.1–0.5 nM • ±Tetracycline (up to 1 MM) in a total volume of 250 μl.
Incubations were set at 37° C. for 16 hours. The reaction was stopped by cooling the incubations and addition of 50 μl cold 90% (w/v) trichloracetic acid with careful mixing. TCA precipitation was allowed to proceed for 15 minutes at 4° C. prior to cetrifugation at 10,000 g for 10 minutes at 4° C. 200 μl of the TCA supernatant was taken for the determination of radioactive content by scintillation counting (Packard Opti Phase Supermix scintillation fluid). Only data derived from within the linear part of the assay (10–70% lysis) were utilized. The percentage inhibition of MMP2 by each tetracycline concentration was plotted to derive the IC50 value, using linear regression analysis.

Human recombinant MMP7 = target: T2, Human recombinant MMP7 (Homo sapiens, UniProt P09237); experiment: MMP7 (Matrilysin) inhibition, 14C casein release; assay type: biochemical; details: 37° C., 16 hours; read-out: MMP-7 inhibitory activity, IC50
T2 sequence (P09237 95-267): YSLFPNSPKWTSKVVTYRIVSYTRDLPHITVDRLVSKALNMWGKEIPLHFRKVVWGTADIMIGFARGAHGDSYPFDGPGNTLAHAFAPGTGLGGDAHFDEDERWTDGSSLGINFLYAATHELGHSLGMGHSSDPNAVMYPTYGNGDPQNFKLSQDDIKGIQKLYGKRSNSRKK
Procedure: MMP7 activity was determined by the release of trichloracetic acid, TCA, soluble fragments from ^14C acetylated β casein (Sigma) as described in Methods in Enzymology 248, 451 (1995).
• 100 μg ^14C casein (7000 dpm) • 50 mM Tris HCl, pH 7.9 • 15 mM CaCl2, 0.02% azide • Human recombinant MMP7, 1.5 nM • ±tetracycline (up to 1 mM) in a total volume of 250 μl.
Incubations were at 37° C. for 16 hours. The incubation was stopped by the addition of 500 μl cold 18% TCA and standing on ice for 15 minutes. TCA precipitates were removed by centrifugation at 10,000 g for 10 minutes at 4° C., and 200 μl supernatant was taken for scintillation counting. Only data derived from within the linear part of the assay (10–60% lysis) were utilized. The percentage inhibition of MMP7 by each concentration of the candidate tetracycline were plotted to derive the IC50 value.

[1] = tested on: MDA-MB-231 human breast cancer cells; experiment: Membrane Invasion Culture System (MICS) chemo-invasion assay; assay type: cell-based; details: 24 hours, + = increased invasiveness
Method in brief: (§1)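 Fifty thousand cells were seeded above a 35 μm laminin/collagen IV/gelatin barrier on a 10 μm-pore filter, with serum-free RPMI plus 50% fibroblast-conditioned medium below as chemoattractant. Compound at 1, 10 or 25 μg/ml, or DMSO vehicle, was present for 24 h. Invaded cells were collected, Wright-stained and counted over 5 fields.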

[2] = tested on: PC-3 ML human prostate cancer cells; experiment: as above; assay type: cell-based; details: 24 hours, + = increased invasiveness
Method in brief: as §1

[3] = tested on: Arp-1 human myeloma cancer cells; experiment: as above; assay type: cell-based; details: 24 hours, + = increased invasiveness
Method in brief: as §1

[4] = tested on: C8161 human melanoma cells; experiment: as above; assay type: cell-based; details: 24 hours, + = increased invasiveness
Method in brief: as §1

[5] = tested on: Ark human myeloma cancer cells; experiment: as above; assay type: cell-based; details: 24 hours, + = increased invasiveness
Method in brief: as §1

Human recombinant MMP9 = Human recombinant MMP9 (Homo sapiens, UniProt P14780); experiment: MMP9 (Gelatinase B) inhibition, 14C gelatin release; assay type: biochemical; details: 37° C., 16 hours; read-out: MMP-9 inhibitory activity, IC50
Sequence of Human recombinant MMP9 (P14780 94-707): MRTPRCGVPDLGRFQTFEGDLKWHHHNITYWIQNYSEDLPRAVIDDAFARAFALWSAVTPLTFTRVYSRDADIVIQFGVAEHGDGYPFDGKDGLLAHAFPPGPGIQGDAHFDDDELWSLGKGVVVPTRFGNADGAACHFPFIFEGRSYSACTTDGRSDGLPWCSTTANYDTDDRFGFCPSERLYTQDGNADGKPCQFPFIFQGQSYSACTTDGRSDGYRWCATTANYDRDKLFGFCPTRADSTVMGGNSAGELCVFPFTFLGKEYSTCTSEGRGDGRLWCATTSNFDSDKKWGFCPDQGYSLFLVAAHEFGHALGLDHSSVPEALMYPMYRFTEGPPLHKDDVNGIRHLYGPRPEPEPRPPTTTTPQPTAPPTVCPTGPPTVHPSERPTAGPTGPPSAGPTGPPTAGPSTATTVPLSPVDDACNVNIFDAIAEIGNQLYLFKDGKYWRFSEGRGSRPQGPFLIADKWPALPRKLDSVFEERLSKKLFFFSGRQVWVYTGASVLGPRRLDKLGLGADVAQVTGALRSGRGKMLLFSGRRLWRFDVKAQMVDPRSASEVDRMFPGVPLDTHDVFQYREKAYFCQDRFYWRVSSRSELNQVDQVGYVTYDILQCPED

Human recombinant MMP3 = Human recombinant MMP3 (Homo sapiens, UniProt P08254); experiment: MMP3 (Stromelysin 1) inhibition, 14C casein release; assay type: biochemical; details: 37° C., 16 hours; read-out: MMP-3 inhibitory activity, IC50
Sequence of Human recombinant MMP3 (P08254 100-477): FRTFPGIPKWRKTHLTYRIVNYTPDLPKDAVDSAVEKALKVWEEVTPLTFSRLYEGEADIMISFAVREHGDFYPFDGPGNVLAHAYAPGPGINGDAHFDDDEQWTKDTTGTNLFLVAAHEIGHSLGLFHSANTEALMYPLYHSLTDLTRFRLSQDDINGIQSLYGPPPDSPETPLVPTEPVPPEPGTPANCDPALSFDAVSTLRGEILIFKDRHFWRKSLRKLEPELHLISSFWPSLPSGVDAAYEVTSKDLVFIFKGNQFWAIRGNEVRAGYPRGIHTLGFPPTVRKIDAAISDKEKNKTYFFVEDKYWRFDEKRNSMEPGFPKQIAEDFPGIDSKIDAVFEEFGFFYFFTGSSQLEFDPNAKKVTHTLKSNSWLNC

Human recombinant MMP1 = target: T3, Human recombinant MMP1 (Homo sapiens, UniProt P03956); experiment: MMP1 (Collagenase-1) inhibition, 14C collagen release; assay type: biochemical; details: 35° C., 5 hours; read-out: MMP-1 inhibitory activity, IC50
T3 sequence (P03956 100-469): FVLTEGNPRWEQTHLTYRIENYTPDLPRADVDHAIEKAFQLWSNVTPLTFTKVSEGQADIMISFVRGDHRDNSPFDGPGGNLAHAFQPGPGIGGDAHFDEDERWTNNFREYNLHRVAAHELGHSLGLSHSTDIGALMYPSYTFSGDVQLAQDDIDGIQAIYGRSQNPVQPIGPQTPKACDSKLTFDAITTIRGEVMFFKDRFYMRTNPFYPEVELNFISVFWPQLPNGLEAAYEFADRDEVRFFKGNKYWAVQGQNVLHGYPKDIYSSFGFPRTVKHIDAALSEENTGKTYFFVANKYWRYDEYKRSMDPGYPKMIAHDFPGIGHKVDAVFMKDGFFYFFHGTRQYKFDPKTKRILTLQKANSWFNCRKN

[6] = tested on: RPMI-8226 human myeloma cancer cells; experiment: Membrane Invasion Culture System (MICS) chemo-invasion assay; assay type: cell-based; details: 24 hours, + = increased invasiveness
Method in brief: as §1

Row | Compound | IC50 (Human recombinant MMP14) [µM] | IC50 (MMP2 (Gelatinase A)) [µM] | IC50 (Human recombinant MMP7) | percent inhibition, MDA-MB-231 (Breast) ([1]; 1 ug/mL) | percent inhibition, MDA-MB-231 (Breast) ([1]; 10 ug/mL) | percent inhibition, MDA-MB-231 (Breast) ([1]; 25 ug/mL) | percent inhibition, PC-3 ML (Prostrate) ([2]; 1 ug/mL) | percent inhibition, PC-3 ML (Prostrate) ([2]; 10 ug/mL) | percent inhibition, PC-3 ML (Prostrate) ([2]; 25 ug/mL) | percent inhibition, C8161 (Melanoma) ([4]; 1 ug/mL) | percent inhibition, C8161 (Melanoma) ([4]; 10 ug/mL) | percent inhibition, C8161 (Melanoma) ([4]; 25 ug/mL) | percent inhibition, ARK ([5]; 1 ug/mL) | percent inhibition, ARK ([5]; 10 ug/mL) | percent inhibition, ARK ([5]; 25 ug/mL) | IC50 (Human recombinant MMP9) [µM] | IC50 (Human recombinant MMP3) [µM] | IC50 (Human recombinant MMP1) [µM] | percent inhibition, RPMI-8226 (Multiple Myeloma) ([6]; 1 ug/mL) | percent inhibition, RPMI-8226 (Multiple Myeloma) ([6]; 10 ug/mL) | further results
1 | CC(C)Nc1ccc2c(c1O)C(=O)C1=C(O)C3(O)C(=O)C(C(N)=O)=C(O)C(N(C)C)C3C(O)C1C2C (stereo not shown) [Compound 3, 9-Isopropylamino-6-deoxy-5-hydroxytetracycline H2SO4] | 216 | > 1000 | > 1 mM | +8% | +2% | 12% | 3% | +1% | 25^B percent | 30^B percent | 22^B percent | 15^B percent | +11% | +6% | +15% | 136 | 304 | > 1000 |  |  | percent inhibition, ARP-1 ([3]; 1 ug/mL): +13%; percent inhibition, ARP-1 ([3]; 10 ug/mL): +1%; percent inhibition, ARP-1 ([3]; 25 ug/mL): +16%
2 | CC1c2ccc(N=[N+]=[N-])c(O)c2C(=O)C2=C(O)C3(O)C(=O)C(C(N)=O)=C(O)C(N(C)C)C3C(O)C21 (stereo not shown) [Compound 6, 9-Azido-6-deoxy-5-hydroxytetracycline H2SO4] | 56 | 135 | > 1 mM and < 1 mM |  |  | 27^B percent and 42^B percent | 21% and 13% | 26% and 32^B percent | 41^B percent and 30^B percent |  | 33^B percent and 21^B percent | 32^B percent and 33^B percent | 12% | 0% | 8% | 83 | 241 | 394 |  |  | 
3 | CN(C)c1cc(N=[N+]=[N-])c(O)c2c1CC1CC3C(N(C)C)C(O)=C(C(N)=O)C(=O)C3(O)C(O)=C1C2=O (stereo not shown) [Compound 10, 9-Azido-7-demethylamino-6-demethyl-6-deoxytetracycline H2SO4] | 53 | 484 | > 1 mM |  |  |  |  |  |  |  | 22% and 28^B percent |  | 6% | +7% | 1% | 41 | 96 | 499 | 3% | 5% | percent inhibition, RPMI-8226 (Multiple Myeloma) ([6]; 25 ug/mL): 29^B percent
4 | CN(C)C1C(O)=C(C(N)=O)C(=O)C2(O)C(O)=C3C(=O)c4c(O)c(Br)cc(Br)c4CC3CC12 (stereo not shown) [Compound 13, 7,9-Dibromo-6-demethyl-6-deoxytetracycline H2SO4] | 14 | 48 | > 1 mM | 4% | 0% | +9% | 8% | 23^B percent | 13% | 6% | 12% | 14% | 2% | +7% | 1% | 64 | 206 | 126 | +11% | +13% | percent inhibition, RPMI-8226 (Multiple Myeloma) ([6]; 25 ug/mL): +12%
